Experimental data as given in ChEMBL document CHEMBL1141740, “Studies on the Synthesis of Elegan-Type Linear Diterpenes: The Efficient Total Syntheses of Eleganolone, Eleganolone Acetate, Elegandiol, Eleganonal, and Epoxyeleganolone” (J Nat Prod, 1998).

How the values were obtained:
Type in all cases: functional, tissue-based
Details in all cases: Cavia porcellus
[1] = tested on: Ileum; test: Relaxation activity in guinea pig ileum assessed as relaxation of KCl-induced muscle contractions
[2] = tested on: Ileum; test: Relaxation activity in guinea pig ileum assessed as relaxation of BaCl2-induced muscle contractions
[3] = tested on: Ileum; test: Relaxation activity in guinea pig ileum assessed as inhibition of histamine-induced muscle contractions
[4] = tested on: Ileum; test: Relaxation activity in guinea pig ileum assessed as inhibition of acetylcholine-induced muscle contractions

CC(=O)OC/C=C(\C)CC/C=C(\C)CC/C=C(\C)CC(=O)C=C(C)C [ELEGANOLONE ACETATE]
Activity [1]: Dose-dependent effect | IC50 [1]: 33.9 µM | Activity [2]: Dose-dependent effect | IC50 [2]: 45.7 µM | IC50 [3]: 6.61 µM | IC50 [4]: 19.5 µM

CC(C)=CC(=O)C/C(C)=C/CC/C(C)=C/CC/C(C)=C/CO [ELEGANOLONE]
Activity [1]: Dose-dependent effect | IC50 [1]: 18.6 µM | Activity [2]: Dose-dependent effect | IC50 [2]: 45.7 µM | IC50 [3]: 14.5 µM | IC50 [4]: 25.1 µM
